In US4379160A, “Carbazole compounds and medicinal use thereof” (priority 1978, dated 1983):
Where a name gives a salt, the structure may show the parent alone. Read-outs that look alike come from different tables or passages of the source. One block for each compound: values may come before it.

Experiments:
muricidal behaviour = test: inhibition of instinctive muricidal (mouse killing) behaviour; type: in vivo, rat; conditions: rats
[1] = tested on: apomorphine-induced aggression; test: antagonism of apomorphine-induced aggression (antiaggressive activity); conditions: for ED50: Rattus norvegicus
anti-histamine activity = test: anti-histamine activity; conditions: in words
[2] = tested on: apomorphine induced stereotyped behaviour; test: apomorphine induced stereotyped behaviour; type: in vivo; conditions: rat; in words
Mouse [3] = test: anticonvulsant activity, Maximal Electroshock Test (MES); type: in vivo; conditions: for ED50: ip, Mouse, Maximal Electroshock Test
Text: | ^(a) Maximal Electroshock Test (Woodbury and Davenport, Arch. Int. | Pharmacodyn. Ther., 92, 97-107 (1952).

[4] = side-effects such as sedation, catalepsy and extrapyramidal dysfunction; type: in vivo; conditions: in words
[5] = tested on: locomotor activity of d-amphetamine; test: potentiation of locomotor activity of d-amphetamine; type: in vivo; conditions: in words
[6] = tested on: anti-cholinergic activity; test: anti-cholinergic activity; conditions: in words
Mouse [7] = conditions: in vivo; for Loss of Righting Reflex ED min.: ip
[8] = acute lethality (LD50) in male mice; conditions: mouse, in vivo
[9] = antagonism of apomorphine-induced aggression (antiaggressive activity); conditions: rat, in vivo, po
Rat = conditions: in vivo; for Muscle Tone Decrease ED min.: ip
[10] = acute oral lethality (LD50) in rat; conditions: in vivo, p.o.
[11] = po, read-out: Antiaggressive ED50

SMILES: C[C@@H]1CN(CCCn2c3ccccc3c3ccccc32)C[C@H](C)N1 [Carbazole, 9-[3-(3,5-cis-dimethylpiperazino)propyl]carbazole]
suppression of instinctive muricidal (mouse killing) behaviour (muricidal behaviour; in words): suppress the instinctive muricidal (i.e. mouse killing) behaviour | potency of anti-aggressive and anti-psychotic properties relative to non-methylated, 4-methyl, 3,4,5-trimethyl and 3,5-trans-dimethyl compounds ([1]; comparison in words): more potent than either the corresponding non-methylated compound or any of the analogous 4-methyl, 3,4,5-trimethyl or 3,5-trans-dimethyl compounds | antagonism of apomorphine-induced aggression ([1]; rat, in words): antagonised apomorphine-induced aggression | anti-histamine activity relative to phenothiazines (anti-histamine activity): significantly less | antagonism of apomorphine induced stereotyped behaviour [2]: failure to antagonise apomorphine induced stereotyped behaviour | anticonvulsant activity of the "Carbazole" relative to cpd. B (Mouse [3]; in words): less than half the anticonvulsant activity of cpd. B | undesirable side-effects such as sedation, catalepsy and extrapyramidal dysfunction [4]: substantially free from undesirable side-effects | potentiation of the locomotor activity of d-amphetamine [5]: potentiates the locomotor activity of d-amphetamine | anti-cholinergic activity relative to phenothiazines [6]: significantly less | minimum dose for loss of righting reflex relative to compound B (Mouse [7]): about three times that of compound B

SMILES: C[C@@H]1CN(CCCn2c3ccccc3c3ccccc32)C[C@H](C)N1 [Example 1, 9-[3-(3,5-cis-Dimethylpiperazino)propyl]carbazole dihydrochloride hemihydrate]
LD50 ([8]; intravenous, read-out: LD50 intravenous): 31 mg/kg | LD50 ([8]; oral, read-out: LD50 oral): 977 mg/kg | ED50 (muricidal behaviour; Rattus norvegicus, ip, intraperitoneal, read-out: ED50 (anti-muricidal)): 15 mg/kg | ED50 ([1]; ip, read-out: ED50 (anti-aggressive)): 12.5 mg/kg | ED50 [1, 11]: 48 mg/kg | selectivity ratio [9]: 20 | Muscle Tone Decrease ED min. (Rat): 125 mg/kg | LD50 [10]: 957 mg/kg | ED50 (Mouse [3]): 43 mg/kg | Loss of Righting Reflex ED min. (Mouse [7]): 160 mg/kg

Loss of Righting Reflex ED min. (Mouse [7]): > 100 mg/kg
SMILES: O=C1NC(=O)C(c2ccccc2)(c2ccccc2)N1 [Phenytoin]
ED50 (Mouse [3]): 8.5 mg/kg | anticonvulsant activity relative to the "Carbazole" (cpd. A) (Mouse [3]; phenytoin vs cpd. A): 5 times | anticonvulsant activity relative to cpd. B (Mouse [3]; phenytoin vs cpd. B): ~2.5 times

SMILES: CN1CCN(CCCn2c3ccccc3c3ccccc32)CC1 [compound B, 9-[3-(4-methylpiperazino)propyl]carbazole, reference compound]
ED50 [1, 11]: 75 mg/kg | selectivity ratio [9]: 11 | dose at which muscle tone decrease is observed relative to the "Carbazole" (Rat): much lower dose | Muscle Tone Decrease ED min. (Rat): 50 mg/kg | LD50 [10]: 830 mg/kg | level of anticonvulsant activity (Mouse [3]; assessment in words): marginal | ED50 (Mouse [3]): 20 mg/kg | Loss of Righting Reflex ED min. (Mouse [7]): 50 mg/kg
